This is an account of results in ChEMBL document CHEMBL1150212, “Antitumor agents, 129. Tannins and related compounds as selective cytotoxic agents” (1992).

SMILES strings stand for the structures. Bounds are passed on as bounds.

What all share (assay type): functional
Common to all, as to conditions: read-out: ED50 (the source's name)

One assay has as its system HCT-8. Nature of the assay: Cytotoxicity against human HCT8 cells by tetrazolium salt-based colorimetric assay.
The test system of a further assay is TE-671. In words: Cytotoxicity against human TE671 cells by tetrazolium salt-based colorimetric assay.
Assay [1] is described as follows: Cytotoxicity against human […] cells by tetrazolium salt-based colorimetric assay.
In a further assay the test system is A549. Nature of the assay: Cytotoxicity against human A549 cells by tetrazolium salt-based colorimetric assay.
The test system of a further assay is KB. In words: Cytotoxicity against human KB cells by tetrazolium salt-based colorimetric assay.

Take `O=C(OC[C@H]1OC(O)[C@@](O)(COC(=O)c2cc(O)c(O)c(O)c2)[C@@H]1O)c1cc(O)c(O)c(O)c1` (stereo not given in full) [HAMAMELITANNIN]: the EC50 (with HCT-8; in the assay on TE-671; in assay [1]; in the assay on A549; in the assay on KB) was > 10 µg/mL in each case.

For `O=C(O[C@@H]1O[C@@H]2COC(=O)c3cc(O)c(O)c(O)c3-c3c(cc(Oc4c(C(=O)O)cc(O)c(O)c4O)c(O)c3O)C(=O)O[C@H]([C@H]1O)[C@@H]2O)c1cc(O)c(O)c(O)c1` [MALLOTINIC ACID], the EC50 (with HCT-8; with TE-671; in assay [1]; with A549; in the assay with KB) was > 10 µg/mL throughout.

For `O=C1O[C@H]2[C@@H]3OC(=O)c4cc(Oc5c(C(=O)O)cc(O)c(O)c5O)c(O)c(O)c4-c4c(cc(O)c(O)c4O)C(=O)OC[C@H]2O[C@@H](OC(=O)c2cc(O)c(O)c(O)c2)[C@@H]3OC(=O)c2cc(O)c(O)c3c2[C@@H]2C1=CC(=O)[C@](O)(O3)C2(O)O` [MALLOTUSINIC ACID], the EC50 (in the assay with HCT-8; in the assay on TE-671; in assay [1]; in the assay on A549; in the assay on KB) was > 10 µg/mL in each case.

Regarding `O=C1OC[C@H]2OC(=O)c3cc(O)c(O)c(O)c3-c3c(O)c(O)c(O)c4c3C(=O)O[C@H]([C@H]3OC(=O)C5C4=C(O)C(=O)C54Oc5cc(O)c6c(c5[C@H]34)O[C@H](c3ccc(O)c(O)c3)[C@@H](O)C6)[C@@H]2OC(=O)c2cc(O)c(O)c(O)c2-c2c1cc(O)c(O)c2O` [MONGOLICAIN A], the EC50 (in the assay with HCT-8; with TE-671; in assay [1]; with A549; in the assay on KB) was > 10 µg/mL throughout.

In the case of `O=C1OC[C@H]2OC(O)[C@@H]3OC(=O)c4cc(O)c(O)c(O)c4-c4c(cc(O)c(O)c4O)C(=O)O[C@H]3[C@@H]2OC(=O)c2cc(O)c(O)c(O)c2-c2c1cc(O)c(O)c2O` (stereo not given in full) [PEDUNCULAGIN], the EC50 is > 10 µg/mL in the assay with HCT-8; > 10 µg/mL with TE-671; 2.74 µg/mL in assay [1]; > 10 µg/mL in the assay on A549; > 10 µg/mL in the assay on KB.

In the case of `O=C(OC[C@H]1O[C@@H](OC(=O)c2cc(O)c(O)c(O)c2)[C@H](OC(=O)c2cc(O)c(O)c(O)c2)[C@@H](OC(=O)c2cc(O)c(O)c(O)c2)[C@@H]1OC(=O)c1cc(O)c(O)c(O)c1)c1cc(O)c(O)c(O)c1` [PENTAGALLOYL GLUCOSE], the EC50 in the assay on HCT-8 was > 10 µg/mL; in the assay with TE-671 it was > 10 µg/mL; in assay [1] it was 5.01 µg/mL; in the assay with A549 it was > 10 µg/mL; in the assay on KB, > 10 µg/mL.

As to `Oc1cc(O)c2c(c1)O[C@@]1(c3ccc(O)c(O)c3)Oc3cc(O)c4c(c3[C@@H]2[C@H]1O)O[C@H](c1ccc(O)c(O)c1)[C@H](O)C4` [PROANTHOCYANIDIN A2], the EC50 in the assay on HCT-8 was > 10 µg/mL; with TE-671 it was > 10 µg/mL; in assay [1], 5.5 µg/mL; in the assay on A549, > 10 µg/mL; with KB it was > 10 µg/mL.

As to `Oc1cc(O)c2c(c1)O[C@H](c1ccc(O)c(O)c1)[C@H](O)[C@H]2c1c(O)cc(O)c2c1O[C@H](c1ccc(O)c(O)c1)[C@H](O)C2` [PROCYANIDIN B2], the EC50 (in the assay on HCT-8; with TE-671; in assay [1]; in the assay on A549; with KB) was > 10 µg/mL throughout.

Turning to `Oc1cc(O)c2c(c1)O[C@H](c1ccc(O)c(O)c1)[C@H](O)[C@H]2c1c(O)cc(O)c2c1O[C@H](c1ccc(O)c(O)c1)[C@H](O)[C@H]2c1c(O)cc(O)c2c1O[C@H](c1ccc(O)c(O)c1)[C@H](O)C2` [PROCYANIDIN C1], the EC50 (in the assay with HCT-8; in the assay on TE-671; in assay [1]; in the assay on A549; in the assay with KB) was > 10 µg/mL throughout.

Turning to `O=C1O[C@H]([C@@H]2OC(=O)c3cc(O)c(O)c(O)c3-c3c(O)c(O)c4oc(=O)c5c(c(O)c(O)c6oc(=O)c3c4c65)-c3c(cc(O)c(O)c3O)C(=O)OC[C@H]2O)[C@@H]2OC(=O)c3c(c(O)c(O)c(O)c3[C@H]2O)-c2c1cc(O)c(O)c2O` [PUNICACORTEIN C], the EC50 in the assay on HCT-8 was > 10 µg/mL; in the assay on TE-671 it was > 10 µg/mL; in assay [1] it was 3.86 µg/mL; with A549, > 10 µg/mL; in the assay with KB, > 10 µg/mL.

Turning to `O=C(O[C@@H]1O[C@@H]2COC(=O)c3cc(O)c(O)c(O)c3-c3c(cc(O)c(O)c3O)C(=O)O[C@H]([C@H]1OC(=O)c1cc(O)c(O)c(O)c1)[C@@H]2OC(=O)c1cc(O)c(O)c(O)c1)c1cc(O)c(O)c(O)c1` [PUNICAFOLIN], the EC50 (with HCT-8; in the assay with TE-671; in assay [1]; in the assay with A549; in the assay with KB) was > 10 µg/mL throughout.

Take `O=C1O[C@@H]2[C@@H](OC(=O)c3cc(O)c(O)c(O)c3-c3c1cc(O)c(O)c3O)[C@H](O)O[C@@H]1COC(=O)c3cc(O)c(O)c(O)c3-c3c(O)c(O)c4oc(=O)c5c(c(O)c(O)c6oc(=O)c3c4c65)-c3c(cc(O)c(O)c3O)C(=O)O[C@@H]21` [PUNICALAGIN]: the EC50 (in the assay on HCT-8; in the assay with TE-671; in assay [1]; in the assay on A549; in the assay with KB) was > 10 µg/mL each time.

With `O=C1OC[C@H]2O[C@@H](O)[C@H](O)[C@@H](O)[C@@H]2OC(=O)c2cc(O)c(O)c(O)c2-c2c(O)c(O)c3oc(=O)c4c(c(O)c(O)c5oc(=O)c2c3c54)-c2c1cc(O)c(O)c2O` [PUNICALIN], the EC50 (with HCT-8; with TE-671; in assay [1]; in the assay on A549; in the assay on KB) was > 10 µg/mL throughout.

Regarding `O=C(O[C@@H]1O[C@@H]2COC(=O)c3cc(O)c(O)c(O)c3-c3c(cc(O)c(O)c3O)C(=O)O[C@H]2[C@H](O)[C@H]1O)c1cc(O)c(O)c(O)c1` [STRICTININ], the EC50 in the assay on HCT-8 was > 10 µg/mL; in the assay on TE-671, > 10 µg/mL; in assay [1] it was 4.86 µg/mL; in the assay on A549, > 10 µg/mL; with KB, > 10 µg/mL.

`O=C1O[C@H]2[C@H](OC(=O)c3cc(O)c(O)c(O)c3)[C@@H](OC(=O)c3cc(O)c(O)c4c3[C@@H]3C1=CC(=O)C(O)(O)C3(O)O4)[C@H](OC(=O)c1cc(O)c(O)c(O)c1)O[C@@H]2COC(=O)c1cc(O)c(O)c(O)c1` (stereo not given in full) [TERCHEBIN]: the EC50 (in the assay with HCT-8; with TE-671; in assay [1]; in the assay on A549; in the assay with KB) was > 10 µg/mL each time.

On to `O=C1OCC2OC(=O)c3cc(O)c(O)c(O)c3-c3c(O)c(O)c(O)c4c3C(=O)OC(C2OC(=O)c2cc(O)c(O)c(O)c2-c2c1cc(O)c(O)c2O)C1OC(=O)c2c-4c(O)c(O)c(O)c2C1O` (stereo not given) [VESCALAGIN], for which the EC50 with HCT-8 is > 10 µg/mL; in the assay with TE-671 it was > 10 µg/mL; in assay [1] it was 0.58 µg/mL; with A549 it was > 10 µg/mL; in the assay with KB, > 10 µg/mL.
